Several values for one entry are separate records, joined by “and”; a condition that tells them apart may be missing. Identical values can stand only once. Like-named read-outs stand apart in the source and are kept apart here. Each block holds one compound with its values, some of them ahead of it.
Columns and labels:
MIF = biological target: T1, MIF (Homo sapiens, UniProt P14174); test: Tautomerase assay (in vitro tautomerase inhibitory activity); type: biochemical; conditions: for MIF inhibitory activity, comparison of Compound 200 and Compound 203: in vitro activity, comparison of Table 2 (tautomerase; THP-1/MIF for 200 only); for in vitro tautomerase inhibitory activity: several different concentrations, FIG. 2 / FIG. 3
T1 sequence (P14174 2-115 limits assumed): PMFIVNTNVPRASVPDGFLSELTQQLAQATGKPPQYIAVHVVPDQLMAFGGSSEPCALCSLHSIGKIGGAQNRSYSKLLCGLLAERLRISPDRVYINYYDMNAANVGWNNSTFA
Excerpt: An alternative in vitro assay is designed to measure the ability of MIF to catalyze tautomerization of the D-isomer of dopachrome (see Rosengren et al., Mol. Med. 2:143-149, 1996; Winder et al., J. Cell Sci. 106:153-166, 1993; Aroca et al., Biochem. J. 277:393-397). Briefly, in this method, D-dopachrome is provided to MIF in the presence and absence of a candidate inhibitor and the ability to catalyze the tautomerization to 5,6-dihydroxyindole-2-carboxylic acid (DHICA) is monitored. However, use of methyl esters of D-dopachrome may be preferred in that a faster reaction rate is observed. Detection of the tautomerization can be performed by any one of a variety of standard methods.
In a similar assay, the ability of MIF to catalyze the tautomerization of phenylpyruvate may be tested (see Johnson et al., Biochem. 38(48):16024-16033, 1999). Briefly, in this method, typically ketonization of phenylpyruvate or (p-hydroxyphenyl)pyruvate is followed by spectroscopy. Further, product formation may be verified by treatment of these compounds with MIF and subsequent conversion to malate for ^1H NMR analysis.
The tautomerization reaction is carried out essentially as described by Rosengren et al., Mol. Med 2(1):143-149, 1996. D-dopachrome conversion to 5,6-dihydroxyindole-2-carboxylic acid is assessed. 1 ml sample cuvettes containing 0.42 mM substrate and 1.4 μg of MIF in a sample solution containing 0.1 mM EDTA and 10 mM sodium phosphate buffer, pH 6.0 are prepared and the rate of decrease in iminochrome absorbance is followed at 475 nm. L-dopachrome is employed as a control. In addition, the reaction products can be followed using an HPLC, utilizing a mobile phase including 20 mM KH2PO4 buffer (pH 4.0) and 15% methanol with a flow rate of 1.2 ml/min. Fluorimetric detection is followed at 295/345 nm.
Alternatively, the tautomerization reaction utilizing phenylpyruvate or (p-hydroxyphenyl)pyruvate is carried out essentially as described by Johnson et al., Biochem. 38:16024-16033, 1999. In this version, ketonization of phenylpyruvate is monitored at 288 nm (ε=17300 M^−1 cm^−1) and the ketonization of (p-hydroxyphenyl)pyruvate is monitored at 300 nm (ε=21600 M^−1 cm^−1). The assay mixture contains 50 mM Na2HPO4 buffer (1 mL, pH 6.5) and an aliquot of a solution of MIF sufficiently dilute (0.5-1.0 μL of a 2.3 mg/mL solution, final concentration of 93-186 nM) to yield an initial liner rate. The assay is initiated by the addition of a small quantity (1-3.3 μL) of either phenylpyruvate or (p-hydroxyphenyl)pyruvate from stock solutions made up in ethanol. The crystalline forms of phenylpyruvate and (p-hydroxyphenyl)pyruvate exist exclusively as the enol isomers (Larsen et al., Acta Chem. Scand. B 28:92-96, 1974).

[1] = biological target: T2, MIF produced by THP-1 cells (Homo sapiens, UniProt P14174); test: THP-1 Cell Assay (THP-1/MIF inhibition, ELISA with anti-MIF monoclonal antibody); type: cell-based
T2 construct: a test cell may express the MIF naturally (e.g., THP-1 cells); endogenous in cells; host or cells: THP-1 cells, LPS-stimulated; conditioned supernatant
T2 sequence (P14174 2-115 limits assumed): T1 sequence (P14174 2-115 limits assumed)
Excerpt: The assays may generally be divided into three categories, those being, assays which monitor export; those which monitor effector or small molecule binding, and those that monitor MIF activity. However, it should be noted that combinations of these assays are within the scope of the present application. […] In an alternative, these two assays (i.e., binding and activity assays) may be combined into a singular assay which detects binding of a test compound (e.g., the ability to displace monoclonal antibodies or inhibit their binding) while also affecting MIF activity. Such assays include combining an ELISA type assay (or similar binding assay) with a MIF tautomerism assay or similar functional assay. As one of ordinary skill in the art may readily recognize, the exact assay employed is irrelevant, provided it is able to detect the ability of the compound of interest to bind MIF.
Varying concentrations of inhibitor analogs are added to LPS stimulated THP-1 cells and allowed to incubate overnight. The following day the amount of immunoreactive MIF detected is evaluated by ELISA.
The high throughput screening assay for MIF inhibitors is performed in a 96-well format using MIF produced by THP-1 cells and is performed as follows. MIF assays are performed by ELISA as indicated above. […] The amount of MIF is calculated by interpolation from an MIF standard curve.

[2] = average of the determinations, read-out: Average IC 50 (Tautomerase Assay)
[3] = single determinations, range in brackets, read-out: Tautomerase Assay (Inhibitory Concentration (IC) of 50 μm)

SMILES: N#Cc1c(N2CCN(C(=O)C3CCCO3)CC2)c2ccccc2n(Cc2ccc(F)cc2)c1=O (stereo not drawn) [Compound 98, 1-(4-Fluoro-benzyl)-2-oxo-4-[4-(tetrahydro-furan-2-carbonyl)-piperazin-1-yl]-1,2-dihydro-quinoline-3-carbonitrile]
- melting point: 123 to 135 °C

SMILES: N#Cc1c(N2CCN(C(=O)c3ccc4ccccc4n3)CC2)c2ccccc2n(Cc2ccc(F)cc2)c1=O [Compound 96, 1-(4-Fluoro-benzyl)-2-oxo-4-[4-(quinoline-2-carbonyl)-piperazin-1-yl]-1,2-dihydro-quinoline-3-carbonitrile]
- melting point: 144 to 157 °C

SMILES: N#Cc1c(N2CCN(C(=O)c3cccs3)CC2)c2ccccc2n(Cc2ccc(F)cc2)c1=O [Compound 203]
- IC50 (MIF; [2]): 98 nM
- MIF inhibitory activity, comparison of Compound 200 and Compound 203 (MIF): satisfactory MIF inhibitory activity
- in vitro tautomerase inhibitory activity (MIF): exhibits MIF inhibitory activity
- IC50 (MIF; [3]): 98 nM

SMILES: N#Cc1c(N2CCN(C(=O)C3CCCS3)CC2)c2ccccc2n(Cc2ccc(F)cc2)c1=O (stereo not drawn) [Compound 102, 1-(4-Fluoro-benzyl)-2-oxo-4-[4-(tetrahydro-thiophene-2-carbonyl)-piperazin-1-yl]-1,2-dihydro-quinoline-3-carbonitrile]
- melting point: 133 to 140 °C

SMILES: N#Cc1c(N2CCN(C(=O)c3ccc4c(c3)OCO4)CC2)c2ccccc2n(Cc2ccc(F)cc2)c1=O [Compound 99, 4-[4-(Benzo[1,3]dioxole-5-carbonyl)-piperazin-1-yl]-1-(4-fluoro-benzyl)-2-oxo-1,2-dihydro-quinoline-3-carbonitrile]
- melting point: 140 to 160 °C

SMILES: Cn1c(=O)c(C#N)c(N2CCN(C(=O)c3cccs3)CC2)c2ccccc21 [Compound 200]
- IC50 (MIF; [2]): 320 nM
- MIF inhibitory activity, comparison of Compound 200 and Compound 203 (MIF): satisfactory MIF inhibitory activity
- in vitro tautomerase inhibitory activity (MIF): exhibits MIF inhibitory activity
- IC50 (MIF; [3]): 300 nM and 340 nM
- IC50 ([1]; average of the determinations, read-out: Average IC 50 (THP-1/MIF Inhibition)): 150 nM
- MIF inhibitory activity in the THP-1 Cell Assay ([1]; several different concentrations, FIG. 1): exhibits MIF inhibitory activity

SMILES: N#Cc1c(N2CCN(C(=O)c3ccc(C(F)(F)F)cc3)CC2)c2ccccc2n(Cc2ccc(F)cc2)c1=O [Compound 100, 1-(4-Fluoro-benzyl)-2-oxo-4-[4-(4-trifluoromethyl-benzoyl)-piperazin-1-yl]-1,2-dihydro-quinoline-3-carbonitrile]
- melting point: 181 to 185 °C

More lines, now with the values ahead:

- melting point: 176 to 183 °C
SMILES: N#Cc1c(N2CCN(C(=O)c3c[nH]cn3)CC2)c2ccccc2n(Cc2ccc(F)cc2)c1=O [Compound 101, 1-(4-Fluoro-benzyl)-4-[4-(1H-imidazole-4-carbonyl)-piperazin-1-yl]-2-oxo-1,2-dihydro-quinoline-3-carbonitrile]

- melting point: 145 to 156 °C
SMILES: N#Cc1c(N2CCN(C(=O)c3cnccn3)CC2)c2ccccc2n(Cc2ccc(F)cc2)c1=O [Compound 95, 1-(4-Fluoro-benzyl)-2-oxo-4-[4-(pyrazine-2-carbonyl)-piperazin-1-yl]-1,2-dihydro-quinoline-3-carbonitrile]

- melting point: 130 to 137 °C
SMILES: Cc1cc(C(=O)N2CCN(c3c(C#N)c(=O)n(Cc4ccc(F)cc4)c4ccccc34)CC2)no1 [Compound 97, 1-(4-Fluoro-benzyl)-4-[4-(5-methyl-isoxazole-3-carbonyl)-piperazin-1-yl]-2-oxo-1,2-dihydro-quinoline-3-carbonitrile]

From patent US7312221B2, “Inhibitors of macrophage migration inhibitory factor and methods for identifying the same” (Avanir Pharmaceuticals, priority 2003, dated 2007)
